Measured values published in publication PMC6445550 (Analytical biochemistry, 2014).

Target: T1, Erf2 (Saccharomyces cerevisiae, UniProt Q06551)
T1 sequence (Q06551 1-359): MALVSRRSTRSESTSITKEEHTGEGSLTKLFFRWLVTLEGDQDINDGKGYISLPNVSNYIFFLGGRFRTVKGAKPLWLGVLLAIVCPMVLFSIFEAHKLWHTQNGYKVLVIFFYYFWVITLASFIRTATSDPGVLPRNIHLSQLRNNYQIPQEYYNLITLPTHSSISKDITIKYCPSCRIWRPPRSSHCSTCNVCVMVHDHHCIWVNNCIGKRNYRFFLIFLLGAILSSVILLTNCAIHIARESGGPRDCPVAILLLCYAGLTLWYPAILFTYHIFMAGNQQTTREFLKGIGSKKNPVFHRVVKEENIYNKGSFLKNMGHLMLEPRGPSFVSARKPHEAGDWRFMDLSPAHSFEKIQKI
Test: fluorescence coupled autopalmitoylation assay with purified complex
Type: biochemical

CCCCCCCCCCCCCCC(Br)C(=O)O (stereo not shown) [2-BP, 2-bromopalmitate]
IC50: ~100 µM
